According to patent publication US20220288404A1, “METHODS FOR APPLYING TUMOR TREATING FIELDS IN COMBINATION WITH CANCER TREATING THERAPEUTICS” (THE BOARD OF REGENTS OF THE UNIVERSITY OF TEXAS SYSTEM, priority 2021, published 2022):

What was measured:
Format in all cases: cell-based
[1] = tested on: H157 cells; test: Clonogenic cell survival assay, H157 cells; conditions: for CI Irino + 2Gy / CI TTFields + Irino / CI TTFields + Irino + 2Gy: CI>1 synergistic
Protocol: (§1) Using certain embodiments disclosed herein, TTFields in combination with various inhibitors and/or radiation treatment (IR) were applied to NSCLC cells or pancreatic cancer cells. For example, a predetermined inhibitor at a predetermined concentration was delivered to NSCLC cells or pancreatic cancer cells, and the cells were immediately exposed to TTFields (e.g., 100-250 kHz and 1-20 V/cm v/cm) for about 24, […], or 72 hours. The predetermined concentration was a cell line specific concentration for optimal target cell killing. Then, the cells were irradiated (at a dose of 2Gy) for less than a minute (e.g., 3.25 Gy/min) and immediately plated for survival.
(§2) FIGS. 4 and 5 depict example effects of TTFields, AZD6738, radiation, and a combination thereof on non-small cell lung cancer cells (NSCLC) and pancreatic cancer cell, respectively. In particular, FIGS. 4 and 5 show TTFields exposure synergistically increases the effects of ATR inhibitor AZD6738 on NSLCL cells (FIG. 4) survival and pancreatic cancer cell (FIG. 5) survival. TTFields were used together with ATR inhibitor AZD6738 and radiation (IR). A synergistic effect was observed when AZD6738 and IR were combined with TTFields using the highest single agent (HSA) approach. The following formulas were used for calculating CI: SF=Survival Fraction; CI (TTFields)+(2Gy)=(SF2Gy×SFTTFields)/SF2Gy+TTFields; CI(TTFields)+(AZD)=(SFAZD×SFTTFields)/SFAZD+TTFields; CI (2Gy)+(AZD)=(SF2Gy×SFAZD)/SF2Gy+AZD; and CI (TTFields)+(2Gy)+(AZD)=(SF2Gy×SFAZD×SFTTFields)/SFTTFields+2Gy+AZD.
(§3) The following formulas are used for calculating the combination Index: SF=Survival Fraction; CI (TTFields)+(2Gy)=(SF2Gy×SFTTFields)/SF2Gy+TTFields; CI(TTFields)+(Irino)=(SFIrino×SFTTFields)/SFIrino+TTFields; CI (2Gy)+(Irino)=(S2Gy×SFIrino)SF2Gy+Irino; and CI (TTFields)+(2Gy)+(Irino)=(SF2Gy×SFIrino×SFTTFields)/SFTTFields+2Gy+Irino.

[2] = tested on: H1299 cells; test: Clonogenic cell survival assay, H1299 cells; conditions: for CI Irino + 2Gy / CI TTFields + Irino / CI TTFields + Irino + 2Gy: CI>1 synergistic
Protocol: as §1, §2, §3

[3] = tested on: H1299 cells; test: Clonogenic cell survival assay, H1299 cells; conditions: 48 h, CI>1 synergistic
[4] = tested on: Panc-1 cells; test: Clonogenic cell survival assay, Panc-1 cells; conditions: for CI Irino + 2Gy / CI TTFields + Irino / CI TTFields + Irino + 2Gy / CI 2Gy + Olap / CI TTFields + 2Gy + Olap / CI TTFields + Olap: CI>1 synergistic; for surviving fraction: agent as shown in figure
Protocol: (§4) Using certain embodiments disclosed herein, TTFields in combination with various inhibitors and/or radiation treatment (IR) were applied to NSCLC cells or pancreatic cancer cells. For example, a predetermined inhibitor at a predetermined concentration was delivered to NSCLC cells or pancreatic cancer cells, and the cells were immediately exposed to TTFields (e.g., 100-250 kHz and 1-20 V/cm v/cm) for about 24, […], or 72 hours. The predetermined concentration was a cell line specific concentration for optimal target cell killing.
(§5) Olaparib was given concomitant with TTFields. Radiation was given 24, 48 or 72 h after the initiation of TTFields and specific agents. […] Values greater than 1.0 are considered as synergistic, that is, greater than the sum of the individual responses. The following formulas were used for calculating CI: SF=Survival Fraction; CI (TTFields)+(2Gy)=(SF2Gy×SFTTFields)/SF2Gy+TTFields; CI(TTFields)+(Olap)=(SFOlap×SFTTFields)/SFOlap+TTFields; CI (2Gy)+(Olap)=(SF2Gy×SFOlap)/SF2Gy+Olap; and CI (TTFields)+(2Gy)+(Olap)=(SF2Gy×SFOlap×SFTTFields)/SFTTFields+2Gy+Olap. […] Based upon the Highest Single Agent […] approach. The calculation for the Combination Index can be found below.
as §2, §3

[5] = tested on: 04.03 cells; test: Clonogenic cell survival assay, 04.03 cells; conditions: for CI 2Gy + Olap / CI TTFields + 2Gy + Olap / CI TTFields + Olap: CI>1 synergistic
Protocol: as §4, §5, §2

`CCc1c2c(nc3ccc(OC(=O)N4CCC(N5CCCCC5)CC4)cc13)-c1cc3c(c(=O)n1C2)COC(=O)[C@]3(O)CC` [Irino, Irinotecan] was tested, and the “effect of combinations of TTFields, agent and/or IR on cell survival” value (“effect of combinations of TTFields” below) [1] was “synergistic effects”, the “CI Irino + 2Gy” value ([1]; 24 h) was 1.064 and the “CI TTFields + Irino” value ([1]; 24 h) was 1.483. For the same molecule, the “CI TTFields + Irino + 2Gy” value ([1]; 24 h) was 1.763, the “CI Irino + 2Gy” value ([1]; 48 h) was 1.244 and the “CI TTFields + Irino” value ([1]; 48 h) was 1.174. For the same molecule, the “CI TTFields + Irino + 2Gy” value ([1]; 48 h) was 1.463, the “CI Irino + 2Gy” value ([1]; 72 h) was 1.275 and the “CI TTFields + Irino” value ([1]; 72 h) was 1.136. For the same molecule, the “CI TTFields + Irino + 2Gy” value ([1]; 72 h) was 2.501, the surviving fraction ([1]; agent as shown in figure) was “significantly reduced” and the “effect of combinations of TTFields” value [2] was “synergistic effects”. The “CI Irino + 2Gy” value ([2]; 24 h) was 1.244, the “CI TTFields + Irino” value ([2]; 24 h) was 1.388 and the “CI TTFields + Irino + 2Gy” value ([2]; 24 h) was 2.365. For the same molecule, the “CI Irino + 2Gy” value ([2]; 48 h) was 1.012, the “CI TTFields + Irino + 2Gy” value ([2]; 48 h) was 2.130 and the “CI Irino + 2Gy” value ([2]; 72 h) was 1.027. The “CI TTFields + Irino” value ([2]; 72 h) was 2.081, the “CI TTFields + Irino + 2Gy” value ([2]; 72 h) was 2.051 and the surviving fraction ([2]; agent as shown in figure) was “significantly reduced”. The “CI TTFields + Irino” value [3] was 1.821, the “effect of combinations of TTFields” value [4] was “synergistic effects” and the “CI Irino + 2Gy” value ([4]; 24 h) was 1.022. For the same molecule, the “CI TTFields + Irino” value ([4]; 24 h) was 1.082, the “CI TTFields + Irino + 2Gy” value ([4]; 24 h) was 2.360 and the “CI Irino + 2Gy” value ([4]; 48 h) was 1.009. The “CI TTFields + Irino” value ([4]; 48 h) was 0.974, the “CI TTFields + Irino + 2Gy” value ([4]; 48 h) was 2.335 and the “CI Irino + 2Gy” value ([4]; 72 h) was 1.132. For the same molecule, the “CI TTFields + Irino” value ([4]; 72 h) was 1.030, the “CI TTFields + Irino + 2Gy” value ([4]; 72 h) was 4.454 and the surviving fraction [4] was “significantly reduced”.
With `O=C(c1cc(Cc2n[nH]c(=O)c3ccccc23)ccc1F)N1CCN(C(=O)C2CC2)CC1` [Olap, Olaparib] the “effect of combinations of TTFields” value [4] was “synergistic effects”, the “CI 2Gy + Olap” value ([4]; 24 h) was 0.890 and the “CI TTFields + 2Gy + Olap” value ([4]; 24 h) was 1.589. The “CI TTFields + Olap” value ([4]; 24 h) was 1.035, the “CI 2Gy + Olap” value ([4]; 48 h) was 0.975 and the “CI TTFields + 2Gy + Olap” value ([4]; 48 h) was 1.817. The “CI TTFields + Olap” value ([4]; 48 h) was 1.209, the “CI 2Gy + Olap” value ([4]; 72 h) was 1.030 and the “CI TTFields + 2Gy + Olap” value ([4]; 72 h) was 2.028. The “CI TTFields + Olap” value ([4]; 72 h) was 1.215, the surviving fraction [4] was “significantly reduced” and the “effect of combinations of TTFields” value [5] was “synergistic effects”. The “CI 2Gy + Olap” value ([5]; 24 h) was 1.550, the “CI TTFields + 2Gy + Olap” value ([5]; 24 h) was 2.863 and the “CI TTFields + Olap” value ([5]; 24 h) was 1.101. The “CI 2Gy + Olap” value ([5]; 48 h) was 1.582, the “CI TTFields + 2Gy + Olap” value ([5]; 48 h) was 2.066 and the “CI TTFields + Olap” value ([5]; 48 h) was 0.973. The “CI 2Gy + Olap” value ([5]; 72 h) was 1.462, the “CI TTFields + 2Gy + Olap” value ([5]; 72 h) was 3.818 and the “CI TTFields + Olap” value ([5]; 72 h) was 1.042. For the same molecule, the surviving fraction ([5]; agent as shown in figure) was “significantly reduced”.
